Assay results reported in patent publication US7517875B2, “Piperidine derivatives having CCR3 antagonism” (Teijin Limited, priority 2002, dated 2009).

Molecular target: T1, CCR3 receptor (Homo sapiens, UniProt P51677)
T1 construct: expressed in transfected cells; host or cells: K562 cells
T1 sequence (P51677 1-355): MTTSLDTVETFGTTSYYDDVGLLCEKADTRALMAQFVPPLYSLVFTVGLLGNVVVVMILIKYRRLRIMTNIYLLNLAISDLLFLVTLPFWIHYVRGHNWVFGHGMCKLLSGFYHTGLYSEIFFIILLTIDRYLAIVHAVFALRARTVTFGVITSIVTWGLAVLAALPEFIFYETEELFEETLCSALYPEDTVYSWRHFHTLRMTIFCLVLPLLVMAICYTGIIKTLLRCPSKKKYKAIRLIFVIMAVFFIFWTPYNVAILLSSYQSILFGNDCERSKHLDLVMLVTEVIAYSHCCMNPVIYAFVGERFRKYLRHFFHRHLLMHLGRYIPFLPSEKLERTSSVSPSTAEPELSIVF
Assay: Inhibition of eotaxin-induced intracellular calcium concentration increase in CCR3-expressing cells
Type: cell-based
Conditions: CCR3-expressing K562 cells, human eotaxin 0.5 μg/ml, read-out: inhibition of eotaxin-induced intracellular calcium concentration increase (Suppression); for inhibition at 10 µM: 10 μM concentration of compound; for inhibition at 2 µM: 2 μM concentration of compound
Method: Measurement of Inhibiting Power of Test Compounds Against Eotaxin-Induced Intracellular Calcium Concentration Increase in CCR3-Expressing Cells
K562 cells stably expressing CCR3 receptor were used in the following method for measurement of the inhibiting power of compounds of the invention against intracellular calcium concentration increase.
The CCR3-expressing K562 cells were suspended in HBSS solution (Hanks' Balanced Salt Solution, Gibco BRL) containing 10 mM HEPES (N-[2-hydroxyethyl]piperazine-N′-[2-ethanesulfonic acid], Gibco BRL), and then 1 mM Fura-2 acetoxymethyl ester (product of Dojin Kagaku) was added to a final concentration of 1 μM and the mixture was incubated at 37° C. for 30 minutes. After rinsing the cells, they were added simultaneously with the test compound into a 96-well white plate (Falcon), the agonist was added after 5 minutes, the mixture was excited at 340 nm and 380 nm, and the 340/380 ratio was monitored to measure the intracellular calcium concentration. Human eotaxin (product of Genzyme Techne) (0.5 μg/ml) was used as an agonist. The inhibiting power of the test compound was determined by measuring the intracellular calcium concentration upon treatment of the CCR3-expressing K562 cells with the test compound 5 minutes before eotaxin stimulation, and calculating the suppression by the following formula. Suppression (%)={1−(A−B)/(C−B)}×100 (A: Intracellular calcium concentration upon stimulation with eotaxin after treatment with test compound, B: Intracellular calcium concentration without stimulation, C: Intracellular calcium concentration upon stimulation with eotaxin without treatment with test compound)

Row | inhibition at 10 µM | inhibition at 2 µM | Structure (SMILES)
1 | 50 to 80% |  | O=C(O)c1ccc2[nH]c(NCC3CCN(CCCc4ccccc4)CC3)nc2c1 [1-5-20, 2-{[1-(3-phenyl-propyl)-piperidin-4-ylmethyl]-amino}-1H-benzimidazole-5-carboxylic acid]
2 |  | 20 to 50% | COC(=O)c1cccc2[nH]c(NCC3CCN(Cc4cc(Cl)cc(Cl)c4O)CC3)nc12 [1-4-1, 2-{[1-(3,5-dichloro-2-hydroxy-benzyl)-piperidin-4-ylmethyl]-amino}-1H-benzimidazole-4-carboxylic acid methyl ester]
3 |  | ≥ 80% | COCCNC(=O)c1cccc2[nH]c(NCC3CCN(Cc4cc(Cl)ccc4O)CC3)nc12 [1-4-10, 2-{[1-(5-chloro-2-hydroxy-benzyl)-piperidin-4-ylmethyl]-amino}-1H-benzimidazole-4-carboxylic acid (2-methoxy-ethyl)-amide]
4 | ≥ 80% |  | Nc1cccc2[nH]c(NCC3CCN(Cc4ccc(Cl)c(Cl)c4)CC3)nc12 [1-3-61, N2-[1-(3,4-dichlorobenzyl)-piperidin-4-ylmethyl]-1H-benzimidazole-2,4-diamine]
5 |  | ≥ 80% | CC(=O)NCCC(=O)Nc1cccc2[nH]c(NCC3CCN(Cc4cccc5ccccc45)CC3)nc12 [1-3-1, 3-acetylamino-N-{2-[(1-naphthalen-1-ylmethyl-piperidin-4-ylmethyl)-amino]-1H-benzimidazol-4-yl}-propionamide]
6 | ≥ 80% |  | CCNC(=O)Nc1cccc2[nH]c(NCC3CCN(Cc4ccc(Cl)c(Cl)c4)CC3)nc12 [1-3-59, 1-(2-{[1-(3,4-dichloro-benzyl)-piperidin-4-ylmethyl]-amino}-1H-benzimidazol-4-yl)-3-ethyl-urea]
7 | 50 to 80% |  | c1ccc(CCCCN2CCC(CNc3nc4ccccc4[nH]3)CC2)cc1 [1-2-170, (1H-benzimidazol-2-yl)-[1-(4-phenyl-butyl)-piperidin-4-ylmethyl]-amine]
8 | ≥ 80% |  | Clc1ccc(CN2CCC(CNc3nc4ccccc4[nH]3)CC2)cc1Cl [1-1-1, (1H-benzoimidazol-2-yl)-[1-(3,4-dichloro-benzyl)-piperidin-4-ylmethyl]-amine]
9 | ≥ 80% |  | Cn1c(CN2CCC(CNc3nc4ccccc4[nH]3)CC2)cc2ccccc21 [1-2-1, (1H-benzimidazol-2-yl)-[1-(1-methyl-1H-indol-2-ylmethyl)-piperidin-4-ylmethyl]-amine]
